Read-outs that look alike come from different tables or passages of the source. Blank lines part the entries; values can stand above or below the compound they belong to.
Experiments:
Format in all cases: in vivo
Setaria viridis (SETVI) [1] = experiment: Post-emergence herbicidal action against SETVI
In short: (§1)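 Doses of 320 g/ha or lower, suffixes a, b and c marking different dosages, were applied post-emergence at the one-leaf stage in 600 l/ha water with 0.5% additive. Damage was assessed visually after about 3 weeks in the greenhouse.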

[2] = system: Echinochloa crus-galli (ECHCG); experiment: Post-emergence herbicidal action against ECHCG
In short: as §1

[3] = system: Digitaria sanguinalis (DIGSA); experiment: Post-emergence herbicidal action against DIGSA; details: 320 g/ha, visual rating about 3 weeks after treatment
In short: as §1

Oryza sativa (ORYSA) = details: crop plant compatibility
In short: (§2)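 Foliar application at the one-leaf stage: WP/EC formulation, 0.5% additive, 600 l/ha water. Greenhouse-grown in sandy loam. Endpoint is visual % injury relative to untreated controls at about 3 weeks.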

[4] = system: Triticum aestivum (TRZAS); details: crop plant compatibility, effect vs untreated controls
In short: as §2

Zea mays (ZEAMX) = details: for Post-emergence action against ZEAMX in % (crop plant compatibility): 20 g/ha, effect in comparison to untreated controls; for Post-emergence action against ZEAMX in %: crop plant compatibility, effect vs untreated controls
In short: as §2

Viola tricolor (VIOTR) [5] = experiment: Post-emergence herbicidal action against VIOTR
In short: as §1

Lolium rigidum (LOLRI) [6] = experiment: Post-emergence herbicidal action against LOLRI; details: dosage 320 g/ha
In short: as §1

[7] = system: Polygonum convolvulus (POLCO); experiment: Post-emergence herbicidal action against POLCO
In short: as §1

[8] = system: Alopecurus myosuroides (ALOMY); experiment: Post-emergence herbicidal action against ALOMY; details: visual rating about 3 weeks after treatment vs untreated controls (100% = plants have died, 0% = like control plants)
In short: as §1

[9] = system: Amaranthus retroflexus (AMARE); experiment: Post-emergence herbicidal action against AMARE
In short: as §1

[10] = system: Abutilon theophrasti (ABUTH); experiment: Post-emergence herbicidal action against ABUTH; details: 320 g/ha, visual rating about 3 weeks after treatment vs untreated controls (100% = plants have died, 0% = like control plants)
In short: as §1

[11] = system: Verconica persica (VERPE); experiment: Post-emergence herbicidal action against VERPE
In short: as §1

[12] = system: Echinochloa crus-galli (ECHCG); experiment: Pre-emergence herbicidal action against ECHCG
In short: (§3)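 Seeds sown in pots and covered with soil; WP or EC formulations sprayed onto the soil surface at 600 l/ha water with 0.5% additive, at 320 g/ha or lower. Greenhouse growth for about 3 weeks, then visual scoring as % effect against untreated controls (100% = plants dead).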

[13] = system: Verconica persica (VERPE); experiment: Pre-emergence herbicidal action against VERPE
In short: as §3

[14] = system: Matricaria inodora (MATIN); experiment: Post-emergence herbicidal action against MATIN
In short: as §1

[15] = system: Amaranthus retroflexus (AMARE); experiment: Pre-emergence herbicidal action against AMARE; details: visual scoring after about 3 weeks vs untreated controls
In short: as §3

Avena fatua (AVEFA) [16] = experiment: Pre-emergence herbicidal action against AVEFA; details: 320 g/ha, visual scoring after about 3 weeks vs untreated controls
In short: as §3

[17] = system: Pharbitis purpurea (PHBPU); experiment: Pre-emergence herbicidal action against PHBPU; details: dosage 320 g/ha
In short: as §3

Lolium rigidum (LOLRI) [18] = experiment: Pre-emergence herbicidal action against LOLRI; details: dosage 320 g/ha
In short: as §3

[19] = system: Alopecurus myosuroides (ALOMY); experiment: Pre-emergence herbicidal action against ALOMY; details: scored visually after about 3 weeks, 100% = plants have died
In short: as §3

[20] = system: Matricaria inodora (MATIN); experiment: Pre-emergence herbicidal action against MATIN
In short: as §3

Setaria viridis (SETVI) [21] = experiment: Pre-emergence herbicidal action against SETVI
In short: as §3

Avena fatua (AVEFA) [22] = experiment: Post-emergence herbicidal action against AVEFA; details: 80 g/ha, visual rating about 3 weeks after treatment
In short: as §1

Viola tricolor (VIOTR) [23] = experiment: Pre-emergence herbicidal action against VIOTR
In short: as §3

[24] = system: Polygonum convolvulus (POLCO); experiment: Pre-emergence herbicidal action against POLCO
In short: as §3

[25] = system: Pharbitis purpurea (PHBPU); experiment: Post-emergence herbicidal action against PHBPU
In short: as §1

[26] = 20 g/ha, effect vs untreated controls
[27] = 80 g/ha, effect in comparison to untreated controls
[28] = 320 g/ha, effect in comparison to untreated controls
[29] = 320 g/ha, visual rating about 3 weeks after treatment

Post-emergence action against ORYSA in % (Oryza sativa (ORYSA); [26]): 10%
Post-emergence action against ORYSA in % (Oryza sativa (ORYSA); [27]): 20%
Post-emergence action against ORYSA in % (Oryza sativa (ORYSA); [28]): 20%
Post-emergence action against TRZAS in % ([4]; 20 g/ha): 20%
Post-emergence action against ZEAMX in % (crop plant compatibility) (Zea mays (ZEAMX)): 10%
Post-emergence action against ZEAMX in % (Zea mays (ZEAMX); 80 g/ha): 20%
SMILES: COC(=O)C(C)NC(=O)C(C)Oc1nn(-c2ccccn2)c(-c2ccc(F)nc2)c1Br (centres unmarked) [Example I-286]
Post-emergence action against SETVI in % (Setaria viridis (SETVI) [1]; dosage 320 g/ha): 80%
Post-emergence action against ECHCG in % ([2]; dosage 320 g/ha): 80%
Post-emergence action against DIGSA in % [3]: 90%
Post-emergence action against VIOTR in % (Viola tricolor (VIOTR) [5]; 320 g/ha): 80%

Post-emergence action against ORYSA in % (Oryza sativa (ORYSA); [26]): 0%
Post-emergence action against ORYSA in % (Oryza sativa (ORYSA); [27]): 10%
Post-emergence action against ORYSA in % (Oryza sativa (ORYSA); [28]): 20%
Post-emergence action against TRZAS in % ([4]; 20 g/ha): 20%
Post-emergence action against TRZAS in % ([4]; 80 g/ha): 20%
Post-emergence action against ZEAMX in % (crop plant compatibility) (Zea mays (ZEAMX)): 0%
Post-emergence action against ZEAMX in % (Zea mays (ZEAMX); 80 g/ha): 0%
Post-emergence action against ZEAMX in % (Zea mays (ZEAMX); 320 g/ha): 20%
SMILES: CCOC(=O)COc1nn(-c2ncccc2F)c(-c2ccnc(F)c2)c1I [Example I-137]
Post-emergence action against LOLRI in % (Lolium rigidum (LOLRI) [6]): 90%
Post-emergence action against POLCO in % ([7]; dosage 80 g/ha): 80%
Post-emergence action against POLCO in % ([7]; dosage 320 g/ha): 80%
Post-emergence action against ALOMY in % ([8]; 320 g/ha): 80%
Post-emergence action against ECHCG in % ([2]; dosage 320 g/ha): 80%
Post-emergence action against AMARE in % [9, 29]: 80%
Post-emergence action against ABUTH in % [10]: 80%
Post-emergence action against VERPE in % ([11]; 320 g/ha, VERPE): 80%
Post-emergence action against VIOTR in % (Viola tricolor (VIOTR) [5]; 80 g/ha): 80%
Post-emergence action against VIOTR in % (Viola tricolor (VIOTR) [5]; 320 g/ha): 80%

Post-emergence action against ORYSA in % (Oryza sativa (ORYSA); [26]): 20%
Post-emergence action against TRZAS in % ([4]; 20 g/ha): 20%
Post-emergence action against ZEAMX in % (crop plant compatibility) (Zea mays (ZEAMX)): 20%
SMILES: CCOC(=O)COc1nn(-c2ncccc2F)c(-c2ccc(F)nc2)c1Br [Example I-51]
Pre-emergence action against ECHCG in % ([12]; dosage 80 g/ha): 80%
Pre-emergence action against ECHCG in % ([12]; dosage 320 g/ha): 90%
Pre-emergence action against VERPE in % ([13]; dosage 80 g/ha): 100%
Pre-emergence action against VERPE in % ([13]; dosage 320 g/ha): 100%
Post-emergence action against SETVI in % (Setaria viridis (SETVI) [1]; dosage 80 g/ha): 90%
Post-emergence action against ALOMY in % ([8]; 80 g/ha): 90%
Post-emergence action against ECHCG in % ([2]; dosage 80 g/ha): 90%
Post-emergence action against MATIN in % ([14]; dosage 80 g/ha): 80%
Pre-emergence action against AMARE in % ([15]; 80 g/ha): 100%
Pre-emergence action against AMARE in % ([15]; 320 g/ha): 100%
Pre-emergence action against AVEFA in % (Avena fatua (AVEFA) [16]): 90%
Post-emergence action against AMARE in % ([9]; 80 g/ha, visual rating about 3 weeks after treatment vs untreated controls (100% = plants have died, 0% = like control plants)): 90%
Pre-emergence action against PHBPU in % [17]: 90%
Pre-emergence action against LOLRI in % (Lolium rigidum (LOLRI) [18]): 90%
Pre-emergence action against ALOMY ([19]; 80 g/ha): 90%
Pre-emergence action against ALOMY ([19]; 320 g/ha): 100%
Pre-emergence action against MATIN in % ([20]; dosage 80 g/ha): 90%
Pre-emergence action against MATIN in % ([20]; dosage 320 g/ha): 90%
Post-emergence action against VERPE in % ([11]; dosage 80 g/ha): 80%
Pre-emergence action against SETVI in % (Setaria viridis (SETVI) [21]; dosage 80 g/ha): 90%
Pre-emergence action against SETVI in % (Setaria viridis (SETVI) [21]; dosage 320 g/ha): 100%
Post-emergence action against AVEFA in % (Avena fatua (AVEFA) [22]): 90%
Pre-emergence action against VIOTR in % (Viola tricolor (VIOTR) [23]; 320 g/ha, Viola tricolor): 100%
Pre-emergence action against VIOTR in % (Viola tricolor (VIOTR) [23]; dosage 80 g/ha): 100%
Post-emergence action against VIOTR in % (Viola tricolor (VIOTR) [5]; 80 g/ha): 80%
Pre-emergence action against POLCO in % ([24]; dosage 80 g/ha): 80%
Pre-emergence action against POLCO in % ([24]; dosage 320 g/ha): 90%
Post-emergence action against PHBPU in % ([25]; dosage 80 g/ha): 90%

Post-emergence action against TRZAS in % ([4]; 20 g/ha): 0%
SMILES: C=Cc1c(OCC(=O)OCC)nn(-c2ccccn2)c1-c1ccc(F)nc1 [Example I-273]
Post-emergence action against POLCO in % ([7]; dosage 320 g/ha): 80%
Post-emergence action against ECHCG in % ([2]; dosage 320 g/ha): 90%
Post-emergence action against MATIN in % ([14]; dosage 320 g/ha): 80%
Post-emergence action against AMARE in % [9, 29]: 80%
Post-emergence action against ABUTH in % [10]: 80%
Post-emergence action against VERPE in % ([11]; 320 g/ha, VERPE): 90%
Post-emergence action against VERPE in % ([11]; dosage 80 g/ha): 80%
Post-emergence action against VIOTR in % (Viola tricolor (VIOTR) [5]; 80 g/ha): 90%
Post-emergence action against VIOTR in % (Viola tricolor (VIOTR) [5]; 320 g/ha): 90%
Post-emergence action against PHBPU in % ([25]; dosage 80 g/ha): 80%
Post-emergence action against PHBPU in % ([25]; dosage 320 g/ha): 90%
